Test results reported in patent publication US20240109917A1 (ACTELION PHARMACEUTICALS LTD, priority 2020, published 2024).
Where two headings read alike, the source gives them in different places.

What was measured:
[1] = biological target: His6-TEV-PDGFRβ (557-1016) (Homo sapiens (Human), UniProt P09619); assay: PDGFRβ HTRF Assay; assay type: biochemical; conditions: read-out: PDGFR HTRF IC50
Summary of the method: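 Human PDGFRβ (557-1016) pre-incubated with compound for 30 min at RT in pH 7.5 HEPES/MgCl2/EGTA/Brij-35/DTT buffer. Reaction started with ATP and TK-biotin peptide, run 3 h at RT, then quenched with EDTA-containing Eu-cryptate antibody/streptavidin-XL665. HTRF 665/620 nm ratio read after 60 min; percent inhibition relative to DMSO and 10 μM imatinib controls.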

PDGFRβ = PDGFRβ (Rattus norvegicus (Rat), UniProt Q05030); assay: PDGFRβ Cellular Assay (PDGFRb P-Y751 HTRF in A10 cells stimulated with PDGF-BB); assay type: cell-based
Summary of the method: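 Rat A10 cells, plated overnight, were treated with compound for 3 hours, then stimulated with PDGF-BB (working stock 100 ng/mL in 10% FBS medium). After lysis, PDGFRβ P-Y751 was detected by HTRF.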

[2] = biological target: Tb-labeled inactive PDGFRβ (Homo sapiens (Human), UniProt P09619); assay: PDGFRβ LanthaScreen Assay; assay type: binding; conditions: read-out: PDGFR Lantha IC50
Sequence of Tb-labeled inactive PDGFRβ (P09619 33-1106): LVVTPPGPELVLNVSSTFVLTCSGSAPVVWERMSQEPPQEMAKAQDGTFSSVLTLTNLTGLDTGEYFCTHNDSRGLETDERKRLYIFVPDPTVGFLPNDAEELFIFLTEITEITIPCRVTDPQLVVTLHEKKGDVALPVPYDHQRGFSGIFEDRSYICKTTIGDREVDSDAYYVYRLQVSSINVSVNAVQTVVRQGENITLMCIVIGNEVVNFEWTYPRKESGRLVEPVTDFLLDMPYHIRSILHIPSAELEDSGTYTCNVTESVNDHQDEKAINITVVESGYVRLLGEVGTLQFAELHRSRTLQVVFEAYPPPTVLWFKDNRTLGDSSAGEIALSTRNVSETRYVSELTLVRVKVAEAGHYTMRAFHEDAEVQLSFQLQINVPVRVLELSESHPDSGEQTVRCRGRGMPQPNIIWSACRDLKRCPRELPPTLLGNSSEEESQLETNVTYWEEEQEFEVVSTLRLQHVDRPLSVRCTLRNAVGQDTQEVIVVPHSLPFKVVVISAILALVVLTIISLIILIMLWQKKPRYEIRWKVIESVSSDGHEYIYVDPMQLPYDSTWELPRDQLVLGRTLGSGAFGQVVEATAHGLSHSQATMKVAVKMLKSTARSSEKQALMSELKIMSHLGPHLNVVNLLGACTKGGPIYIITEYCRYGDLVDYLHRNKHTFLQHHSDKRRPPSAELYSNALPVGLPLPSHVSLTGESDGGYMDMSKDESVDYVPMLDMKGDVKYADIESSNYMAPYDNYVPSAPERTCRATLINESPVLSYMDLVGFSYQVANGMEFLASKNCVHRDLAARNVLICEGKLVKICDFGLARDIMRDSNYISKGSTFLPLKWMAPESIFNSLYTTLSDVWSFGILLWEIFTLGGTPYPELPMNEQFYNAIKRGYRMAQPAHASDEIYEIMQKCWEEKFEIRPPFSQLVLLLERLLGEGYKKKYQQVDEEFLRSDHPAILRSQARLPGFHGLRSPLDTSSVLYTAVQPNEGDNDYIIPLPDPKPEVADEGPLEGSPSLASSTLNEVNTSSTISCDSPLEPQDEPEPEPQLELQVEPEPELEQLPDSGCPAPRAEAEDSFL

Sequence of His6-TEV-PDGFRβ (557-1016) (P09619 557-1016): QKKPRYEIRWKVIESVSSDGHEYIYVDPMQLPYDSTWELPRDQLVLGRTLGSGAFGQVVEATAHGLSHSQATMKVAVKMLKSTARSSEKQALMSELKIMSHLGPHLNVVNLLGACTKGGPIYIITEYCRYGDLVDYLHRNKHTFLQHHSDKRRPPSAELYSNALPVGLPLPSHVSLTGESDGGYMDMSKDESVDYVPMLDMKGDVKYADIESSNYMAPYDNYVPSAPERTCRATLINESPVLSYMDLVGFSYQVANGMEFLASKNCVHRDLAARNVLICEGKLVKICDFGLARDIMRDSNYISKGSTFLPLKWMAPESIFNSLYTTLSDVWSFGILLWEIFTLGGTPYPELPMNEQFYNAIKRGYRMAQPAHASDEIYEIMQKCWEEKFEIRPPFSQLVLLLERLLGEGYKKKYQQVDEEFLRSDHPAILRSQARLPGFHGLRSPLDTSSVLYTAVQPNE
Sequence of PDGFRβ (Q05030 32-1097): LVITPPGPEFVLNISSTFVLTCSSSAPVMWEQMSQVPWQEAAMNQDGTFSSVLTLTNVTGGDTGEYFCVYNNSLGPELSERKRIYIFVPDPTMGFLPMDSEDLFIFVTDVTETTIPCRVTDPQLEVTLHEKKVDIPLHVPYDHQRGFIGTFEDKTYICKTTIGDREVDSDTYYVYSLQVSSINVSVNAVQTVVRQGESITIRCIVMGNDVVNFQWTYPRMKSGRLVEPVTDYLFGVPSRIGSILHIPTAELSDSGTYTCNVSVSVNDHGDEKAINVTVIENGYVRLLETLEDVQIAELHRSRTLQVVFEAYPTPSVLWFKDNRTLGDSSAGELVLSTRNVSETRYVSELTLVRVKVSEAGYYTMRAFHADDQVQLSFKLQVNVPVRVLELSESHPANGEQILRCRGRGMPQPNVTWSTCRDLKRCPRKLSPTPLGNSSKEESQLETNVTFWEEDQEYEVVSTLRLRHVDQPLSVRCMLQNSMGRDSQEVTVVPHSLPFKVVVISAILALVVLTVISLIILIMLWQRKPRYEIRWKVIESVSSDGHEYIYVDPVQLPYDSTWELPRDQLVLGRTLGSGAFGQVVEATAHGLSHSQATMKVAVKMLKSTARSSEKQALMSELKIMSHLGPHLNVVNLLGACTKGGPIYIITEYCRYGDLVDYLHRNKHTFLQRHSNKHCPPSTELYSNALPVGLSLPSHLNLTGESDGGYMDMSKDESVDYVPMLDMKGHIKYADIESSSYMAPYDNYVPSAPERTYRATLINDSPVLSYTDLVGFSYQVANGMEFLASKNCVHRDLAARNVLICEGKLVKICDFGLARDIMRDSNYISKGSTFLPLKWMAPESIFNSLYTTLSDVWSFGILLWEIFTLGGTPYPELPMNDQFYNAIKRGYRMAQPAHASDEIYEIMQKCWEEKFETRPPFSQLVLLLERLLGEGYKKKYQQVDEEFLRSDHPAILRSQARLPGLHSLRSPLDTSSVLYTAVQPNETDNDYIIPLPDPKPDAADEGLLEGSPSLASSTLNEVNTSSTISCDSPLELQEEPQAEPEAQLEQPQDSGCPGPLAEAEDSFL

Compound	IC50 [1] [nM]	IC50 (PDGFRβ; read-out: PDGFR Cellular IC50) [nM]	IC50 [2] [nM]	IC50 (PDGFRβ; PDGFR Cellular IC50) [nM]
Cc1ncc(NC(=O)CN2CCOCC23CC3)cc1NC(=O)c1cnn2cc(-c3cnn(C)c3)sc12 [Example 47, N-(5-(2-(7-oxa-4-azaspiro[2.5]octan-4-yl)acetamido)-2-methylpyridin-3-yl)-2-(1-methyl-1H-pyrazol-4-yl)pyrazolo[5,1-b]thiazole-7-carboxamide]	0.9	37.2	16.5	–
Cc1ncc(NC(=O)CN2CC3CC(C2)O3)cc1NC(=O)c1cnn2cc(-c3cnn(C)c3)sc12 [Example 45, N-(5-(2-(6-oxa-3-azabicyclo[3.1.1]heptan-3-yl)acetamido)-2-methylpyridin-3-yl)-2-(1-methyl-1H-pyrazol-4-yl)pyrazolo[5,1-b]thiazole-7-carboxamide]	1	75.4	31	–
CC[C@@H]1CN(CC(=O)Nc2cnc(C)c(NC(=O)c3cnn4cc(-c5cnn(C)c5)sc34)c2)CCO1 [Example 65, (R)—N-(5-(2-(2-ethylmorpholino)acetamido)-2-methylpyridin-3-yl)-2-(1-methyl-1H-pyrazol-4-yl)pyrazolo[5,1-b]thiazole-7-carboxamide]	0.7	6.8	16.5	–
Cc1ncc(NC(=O)CNC2CCC2)cc1NC(=O)c1cnn2cc(-c3cnn4c3OCCC4)sc12 [Example 494, N-(5-(2-(cyclobutylamino)acetamido)-2-methylpyridin-3-yl)-2-(6,7-dihydro-5H-pyrazolo[5,1-b][1,3]oxazin-3-yl)pyrazolo[5,1-b]thiazole-7-carboxamide]	0.4	9.6	3.9	–
COCC1CCCN1CC(=O)Nc1cnc(C)c(NC(=O)c2cnn3cc(-c4cnn(C)c4)sc23)c1 (stereo not drawn) [Example 79, N-(5-(2-(2-(methoxymethyl)pyrrolidin-1-yl)acetamido)-2-methylpyridin-3-yl)-2-(1-methyl-1H-pyrazol-4-yl)pyrazolo[5,1-b]thiazole-7-carboxamide]	0.8	12.6	10.9	–
Cc1ncc(NC(=O)CCN2CCCC2(C)C)cc1NC(=O)c1cnn2cc(-c3cnn(C)c3)sc12 [Example 42, N-(5-(3-(2,2-dimethylpyrrolidin-1-yl)propanamido)-2-methyl-pyridin-3-yl)-2-(1-methyl-1H-pyrazol-4-yl)pyrazolo[5,1-b]thiazole-7-carboxamide]	0.28	5.9	3.8	–
COCCn1cc(-c2cn3ncc(C(=O)Nc4cc(NC(=O)CCN5CCC6(CC6)C5)cnc4C)c3s2)cn1 [Example 91, N-(5-(3-(5-azaspiro[2.4]heptan-5-yl)propanamido)-2-methylpyridin-3-yl)-2-(1-(2-methoxyethyl)-1H-pyrazol-4-yl)pyrazolo[5,1-b]thiazole-7-carboxamide]	0.5	36.4	13.2	–
Cc1ncc(C(=O)NCCN2CCCC23CCC3)cc1NC(=O)c1cnn2cc(-c3cnn(C)c3)sc12 [Example 3, N-(5-((2-(5-azaspiro[3.4]octan-5-yl)ethyl)carbamoyl)-2-methylpyridin-3-yl)-2-(1-methyl-1H-pyrazol-4-yl)pyrazolo[5,1-b]thiazole-7-carboxamide]	0.6	6	4	–
Cc1ncc(NC(=O)CN2CCc3cccnc3C2)cc1NC(=O)c1cnn2cc(-c3cnn(C)c3)sc12 [Example 60, N-(5-(2-(5,6-dihydro-1,7-naphthyridin-7 (8H)-yl)acetamido)-2-methylpyridin-3-yl)-2-(1-methyl-1H-pyrazol-4-yl)pyrazolo[5,1-b]thiazole-7-carboxamide]	1	50.4	18.3	–
Cc1ncc(NC(=O)OC[C@@H]2CCCN2C)cc1NC(=O)c1cnn2cc(-c3cn(C)nc3C)sc12 [Example 496, (S)-(1-methylpyrrolidin-2-yl)methyl (5-(2-(1,3-dimethyl-1H-pyrazol-4-yl)pyrazolo[5,1-b]thiazole-7-carboxamido)-6-methylpyridin-3-yl)carbamate]	0.3	5.6	2.8	–
CC[C@H]1COCCN1CC(=O)Nc1cnc(C)c(NC(=O)c2cnn3cc(-c4cnn(C)c4)sc23)c1 [Example 70, (S)—N-(5-(2-(3-ethylmorpholino)acetamido)-2-methylpyridin-3-yl)-2-(1-methyl-1H-pyrazol-4-yl)pyrazolo[5,1-b]thiazole-7-carboxamide]	0.2	6.4	2.9	–
Cc1ncc(C(=O)NCCN2CCCC2(C)C)cc1NC(=O)c1cnn2cc(-c3ccnc(N4CCOCC4)c3)sc12 [Example 483, N-(5-((2-(2,2-dimethylpyrrolidin-1-yl)ethyl)carbamoyl)-2-methylpyridin-3-yl)-2-(2-morpholinopyridin-4-yl)pyrazolo[5,1-b]thiazole-7-carboxamide]	0.3	–	2.1	17.7
Cc1ncc(NC(=O)CN2CCC2(C)C)cc1NC(=O)c1cnn2cc(-c3cnn(C)c3)sc12 [Example 82, N-(5-(2-(2,2-dimethylazetidin-1-yl)acetamido)-2-methylpyridin-3-yl)-2-(1-methyl-1H-pyrazol-4-yl)pyrazolo[5,1-b]thiazole-7-carboxamide]	1.6	12.5	24.3	–
Cc1ncc(NC(=O)CN2C3CCC2COC3)cc1NC(=O)c1cnn2cc(-c3cnn(C)c3)sc12 [Example 44, N-(5-(2-(3-oxa-8-azabicyclo[3.2.1]octan-8-yl)acetamido)-2-methylpyridin-3-yl)-2-(1-methyl-1H-pyrazol-4-yl)pyrazolo[5,1-b]thiazole-7-carboxamide]	1.3	23.7	11.6	–
Cc1ncc(NC(=O)CN2CCOC[C@H]2C)cc1NC(=O)c1cnn2cc(-c3cnn(C)c3)sc12 [Example 50, (R)-2-(1-methyl-1H-pyrazol-4-yl)-N-(2-methyl-5-(2-(3-methylmorpholino)acetamido)pyridin-3-yl)pyrazolo[5,1-b]thiazole-7-carboxamide]	0.6	–	14	27.3
Cc1ncc(NC(=O)CN2CCO[C@@H](C)C2)cc1NC(=O)c1cnn2cc(-c3cnn(C)c3)sc12 [Example 64, (S)-2-(1-methyl-1H-pyrazol-4-yl)-N-(2-methyl-5-(2-(2-methylmorpholino)acetamido)pyridin-3-yl)pyrazolo[5,1-b]thiazole-7-carboxamide]	0.4	8.6	6.3	–
CC[C@@H]1COCCN1CC(=O)Nc1cnc(C)c(NC(=O)c2cnn3cc(-c4cnn(C)c4)sc23)c1 [Example 69, (R)—N-(5-(2-(3-ethylmorpholino)acetamido)-2-methylpyridin-3-yl)-2-(1-methyl-1H-pyrazol-4-yl)pyrazolo[5,1-b]thiazole-7-carboxamide]	0.5	12.1	4.7	–
Cc1ncc(C(=O)NCCN2CC3CCC2CC3)cc1NC(=O)c1cnn2cc(-c3ccnc(N4CCOCC4)c3)sc12 [Example 484, N-(5-((2-(2-azabicyclo[2.2.2]octan-2-yl)ethyl)carbamoyl)-2-methylpyridin-3-yl)-2-(2-morpholinopyridin-4-yl)pyrazolo[5,1-b]thiazole-7-carboxamide]	0.2	44.1	1.4	–
